In patent US11466011B2, “Compounds and their use as inhibitors of N-myristoyl transferase” (Imperial College Innovations Limited, priority 2015, dated 2022):
Structures can show the parent of a compound that is named as a salt.

Tests used:
[1] = test system: HeLa Ohio cells; experiment: Cell viability of inhibitor-treated uninfected cells (assay (f)); details: MTS 2 days post-treatment
[2] = test system: HRV16; experiment: Rhinovirus production assay 2 (f), virus-induced cytopathic effect; type: cell-based, human HeLa Ohio cell line; details: 2 days post-infection, HeLa Ohio cells
Procedure: Examples 30, 35, 49 and 50 of the invention was tested for activity in a rhinovirus replication assay in the human HeLa Ohio cell line. Compounds having activity in inhibiting rhinovirus production in the assay are expected to be useful as agents for preventing and/or treating asthma or chronic obstructive pulmonary disease (COPD), by virtue of being inhibitors of human NMT1 and/or NMT2, which are thought to myristoylate rhinovirus capsid subunit VP4 and be essential for virus assembly. HeLa Ohio cells were grown in growth media (DMEM supplemented with 10% FBS, 1% Sodium Bicarbonate and 25 mM Hepes) and seeded 24 hours prior to infection in a 96-well plate at a cell density allowing to obtain 100% confluent cells (5.6×10^4 cells per well) the next day. Confluent cells were infected with HRV16 at an MOI of 0.05 in the presence of different concentrations of inhibitor, as indicated in the table below, each in duplicate. The virus stock (5.6×10^6 PFU/ml) was diluted in growth media to obtain a virus solution at 1.4×10^4 PFU/ml. This virus dilution was used to dilute the inhibitor by serial dilutions in order to obtain virus solutions with the inhibitor concentrations indicated in the table below. The DMSO control contained the same percentage of DMSO as in the solution with the highest concentration of inhibitor.

[3] = test system: HeLa and/or BL-41 cells; experiment: Metabolic activity assay (MTS assay) (d), HeLa and/or BL-41; type: cell-based; details: Homo sapiens, 72 h
Procedure: Example NMT inhibitors of the invention were tested for activity in an in vitro metabolic activity assay using human cell lines (HeLa and BL-41). Compounds having activity in inhibiting metabolic activity in the assay are expected to be useful as agents for preventing and/or treating cancer, by virtue of being inhibitors of human NMT1 and/or NMT2.
Hela cells were grown in DMEM media (supplemented with 10% FBS) and seeded in a 96-well plate 24 h prior to treatment. BL-41 cells were grown in RPMI-1640 media (supplemented with 10% FBS) and seeded directly before treatment. Cell suspensions were prepared by adjusting the cell density to the appropriate concentration (as stated in the table below) and 50 μL of the cell suspension was transferred to wells B-G in columns 2-11 of a 96-well plate.
100 μL of growth media containing 0.2% DMSO was added to wells B-G in columns 2 and 11 as positive controls and 100 μL of growth media containing Puromycin (3 μg/mL; final concentration in the plate 2 μg/mL) was added to wells B-G in column 3 as a negative control. 7 concentrations of inhibitor solution were prepared using example NMT inhibitors (same final percentage of DMSO, dilution factor=3 starting from 15 μM or 150 μM) and 100 μL of inhibitor solution was added to wells B-G in columns 4-10 (final concentration of example NMT inhibitor in the plate starting from 10 μM or 100 μM; total volume of the wells=150 μL).
After 72 h, 20 μL MTS reagent (Promega, prepared according to the supplier protocol) was added to each well of the 96-well plate. The plate was incubated at 37° C. (2 hours for HeLa cells and 4 hours for BL-41 cells) and absorbance was measured at 490 nm with a Spectra Max M2/M2e microplate reader. The average absorbance value of the negative control (Puromycin-treated cells) was subtracted from each value and the metabolic activity was calculated as a percentage relative to the positive control (DMSO-treated cells). EC50s were calculated using Grafit 7.0 (Erithacus Software Ltd, UK).

[4] = test system: HRV16; experiment: Rhinovirus production assay (e), virus titre (TCID50); type: cell-based, human HeLa Ohio cell line; details: Enterovirus
Procedure: Example 30 of the invention was tested for activity in an in vitro rhinovirus production assay using the human HeLa Ohio cell line. Compounds having activity in inhibiting rhinovirus production in the assay are expected to be useful as agents for preventing and/or treating asthma or chronic obstructive pulmonary disease (COPD), by virtue of being inhibitors of human NMT1 and/or NMT2, which are thought to myristoylate rhinovirus capsid subunit VP4 and be essential for virus assembly. Hela Ohio cells were grown in growth media (DMEM supplemented with 10% FBS, 1% Sodium Bicarbonate and 25 mM Hepes) and seeded 24 h prior to infection in a 12-well plate at a cell density allowing to obtain 100% confluent cells (5.95×10^5 cells per well) the next day. Confluent cells were treated with different concentrations of inhibitor, as indicated in the table below, each in triplicate. The Example 30 inhibitor solution was prepared by serial dilutions in growth media and the DMSO control contained the same percentage of DMSO as in the solution with the highest concentration of inhibitor. […] Cells were then infected with HRV16 at an MOI of 1 in the presence of the inhibitor. The virus stock (2.492×10^7 PFU/ml) was diluted in growth media to obtain a virus solution at 5.95×10^5 PFU/ml. This virus dilution was used to dilute the inhibitor as previously described in order to obtain virus solutions with the inhibitor concentrations indicated in the table below. The cell media was as replaced by 1 ml per well of virus+inhibitor solution and the plate was incubated for 1 h at room temperature to allow virus adsorption onto the cells. The cells were then washed with PBS and the media was replaced with 1 ml per well of growth media+inhibitor, prepared as previously described. […] The media and cells form each well were then transferred to 1.5 ml tubes and centrifuged for 1 min at 16000×g to remove cell debris. The virus titres from the cleared supernatants were determined by measuring the 50% Tissue Culture Infective Dose (TCID50). Each sample was diluted in a series of 10-fold dilutions in TCID50 media (DMEM supplemented with 2% FBS, 1% Sodium Bicarbonate, 25 mM Hepes and 1% Penicillin-Streptomycin) and 50 μl of each of the dilutions 1/10 to 1/10^−8 were added onto a 96-well plate, in 6 replicates. HeLa Ohio cells at a cell density of 1×10^5 cells/ml in TCID50 media were then added to each well (150 μl per well). Some wells with cells alone (without sample) were included as control. […] The appearance of characteristic cytopathic effect, compared to control cells, was then assessed by observation of the plates on an inverted microscope and the virus titres were subsequently calculated by the method of Reed and Muench.

[5] = target: Leishmania donovani (Ld) N-myristoyl transferase (Leishmania donovani, UniProt D0AB09); experiment: Fluorescence-based NMT assay (a), adapted version, LdNMT; type: biochemical
Sequence of Leishmania donovani (Ld) N-myristoyl transferase (D0AB09 entry or part of it): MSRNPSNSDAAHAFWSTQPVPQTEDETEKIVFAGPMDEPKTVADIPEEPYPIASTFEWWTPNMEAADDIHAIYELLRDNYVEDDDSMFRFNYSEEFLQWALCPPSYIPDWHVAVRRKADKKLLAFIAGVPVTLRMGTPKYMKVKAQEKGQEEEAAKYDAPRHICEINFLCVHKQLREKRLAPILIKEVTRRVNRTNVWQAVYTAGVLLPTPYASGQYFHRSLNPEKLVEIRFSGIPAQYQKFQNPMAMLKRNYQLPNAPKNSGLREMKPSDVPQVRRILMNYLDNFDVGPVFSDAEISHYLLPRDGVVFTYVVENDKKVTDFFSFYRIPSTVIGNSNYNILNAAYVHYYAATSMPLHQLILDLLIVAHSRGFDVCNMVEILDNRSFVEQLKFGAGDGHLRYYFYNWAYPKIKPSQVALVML

[6] = target: T1, Leishmania major (Lm) N-myristoyl transferase (Leishmania major, UniProt Q4Q5S8); experiment: Fluorescence-based NMT assay (a), adapted version, LmNMT; type: biochemical
T1 sequence (Q4Q5S8 1-421): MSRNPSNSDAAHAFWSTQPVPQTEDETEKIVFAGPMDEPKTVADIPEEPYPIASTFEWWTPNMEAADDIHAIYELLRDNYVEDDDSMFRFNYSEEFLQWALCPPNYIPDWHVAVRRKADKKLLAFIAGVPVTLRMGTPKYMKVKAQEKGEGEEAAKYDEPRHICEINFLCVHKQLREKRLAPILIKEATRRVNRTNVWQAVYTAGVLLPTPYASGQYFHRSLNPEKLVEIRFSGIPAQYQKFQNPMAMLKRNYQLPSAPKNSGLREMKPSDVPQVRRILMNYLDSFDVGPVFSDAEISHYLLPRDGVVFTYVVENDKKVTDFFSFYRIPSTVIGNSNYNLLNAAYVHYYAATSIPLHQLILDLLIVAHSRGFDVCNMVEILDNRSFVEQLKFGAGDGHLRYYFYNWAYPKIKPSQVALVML

| Structure (SMILES) | cell viability of inhibitor-treated but uninfected cells [1] | HRV16 production (virus-induced cytopathic effect, MTS) [2] | EC50 [3] | EC50 [4] | IC50 [5] | IC50 [6] | melting point |
| --- | --- | --- | --- | --- | --- | --- | --- |
| Cc1nn(C)c(C)c1CCOc1c(-c2ccc3c(c2)c(CN(C)C)nn3C)ccc(F)c1F [Example 49] | without affecting cell viability | inhibit HRV16 production in a dose-dependent manner | 1 to 100 nM | 10 to 100 nM |  |  |  |
| CN(C)Cc1n[nH]c2ccc(-c3ccc(F)cc3OCCc3cccnc3)cc12 [Example 8] |  |  |  |  | 1 to 100 nM | 1 to 100 nM |  |
| Cc1nn(C)c(C)c1CCOc1cc(F)ccc1-c1ccc2[nH]nc(CN(C)C)c2c1 [Example 7] |  |  |  |  | 1 to 100 nM |  |  |
| Cc1nn(C)c(C)c1CCOc1c(F)cccc1-c1ccc2c(c1)c(CN(C)C)nn2C [Example 30] | without affecting cell viability | inhibit HRV16 production in a dose-dependent manner | 1 to 100 nM | 10 to 100 nM |  |  |  |
| Cc1nn(C)c(C)c1CCOc1cc(F)ccc1-c1ccc2c(c1)c(CN)nn2C (as salt: salt) [Example 31, (5-(4-fluoro-2-(2-(1,3,5-trimethyl-1H-pyrazol-4-yl)ethoxy)phenyl)-1-methyl-1H-indazol-3-yl)methanamine] |  |  |  |  |  |  | 230 to 233 °C |
| CNCc1nn(C)c2ccc(-c3cccc(F)c3OCCc3c(C)nn(C)c3C)cc12 [Example 35, 1-(5-(3-fluoro-2-(2-(1,3,5-trimethyl-1H-pyrazol-4-yl)ethoxy)phenyl)-1-methyl-1H-indazol-3-yl)-N-methylmethanamine] | without affecting cell viability | inhibit HRV16 production in a dose-dependent manner |  | 10 to 100 nM |  |  |  |
| CNCc1nn(C)c2ccc(-c3ccc(F)c(F)c3OCCc3c(C)nn(C)c3C)cc12 [Example 50, 1-(5-(3,4-difluoro-2-(2-(1,3,5-trimethyl-1H-pyrazol-4-yl)ethoxy)phenyl)-1-methyl-1H-indazol-3-yl)-N-methylmethanamine] | without affecting cell viability | inhibit HRV16 production in a dose-dependent manner | 1 to 100 nM | 10 to 100 nM |  |  |  |
